Data on three compounds can be found in patent US9526721B2, “Tetrahydroprotoberbine compounds and uses thereof in the treatment of neurological, psychiatric and neurodegenerative diseases” (priority 2012, dated 2016).

What is called ED50 is the dose at which the effect has come halfway, by size or by number of responders. One may read the Ki as the dissociation constant of the complex between target and ligand, obtained from inhibition or displacement.

Like-named read-outs stand apart in the source and are kept apart here. Marks after values point to notes of the source that are not given here.

In data set [1] the test system is rats. The data set is described as follows: Catalepsy (bar test). Format: in vivo, rat. The protocol:
(§1) Testing occurred in a plexiglas box (28 cm×45 cm×20 cm) containing a horizontal steel bar located 8 cm above floor level. […] After injection animals were returned to the test box and catalepsy testing occurred at 1, 15, 30, and 45 minutes after injection. Testing at each time point lasted 2 min after the forepaws of each rat was placed on the bar. Behavior was recorded with a video camera (Cohu, Poway, Calif.) and scored off-line. The cumulative time spent immobilized with both forelimbs on the horizontal bar was scored for each 2 min test epoch. Videos selected at random were scored independently by a second observer and a high inter-rater reliability was observed (R^2=0.93, F=393.4, p<0.05).
(§2) Catalepsy testing was conducted as described in Example 12.

Data set [2] can be described thus: Catalepsy (bar test). The settings on record: rat, in vivo; present data; SC, 45 min time point. Type of data set: in vivo, rat. On the procedure:
as §1, §2

In data set [3] the test system is rats. The data set is described as follows: Conditioned avoidance responding (CAR).
Procedure: Conditioned avoidance responding (CAR) was performed in a two-way avoidance procedure with drug naive rats in four shuttle boxes (Med Associates, Vt., USA) each consisting of two compartments separated by an open door. Each compartment contained a wall-mounted speaker, house light and 5 photocells to detect the location of the animal. All experimental protocols and data acquisition were controlled by custom programs written in MED-PC.
Before training, each animal received two acclimation sessions lasting 30 min with only the house light illuminated. […] Pairings of the conditioned stimulus (CS) (white noise, ˜60 dB) and the unconditioned stimulus (US) (footshock, 0.75 mA) were presented at random intervals with a mean of 60 sec. The CS was presented for 10 sec. During this time, if the animal moved to the opposite side of the box, the white noise was silenced, no foot shock delivered, and an avoidance response was scored. Upon termination of the 10 sec tone, if the animal had not moved to the opposite side of the box, a foot-shock was administered for 2 sec. […] Failure to avoid or escape constituted a response failure and was scored accordingly. After reaching a criterion of 90% avoidances for a block of 20 trials, usually achieved with ˜100 CS-US pairings, each animal advanced to the drug-testing phase. Animals not meeting the criterion by 120 pairings were excluded from the study.
Pairings were presented just as during training and were scored in the same fashion. The test trial consisted of 100 CS-US pairings.
For data set [4], the system named is D1/D2. Kind of data set: D1/D2 affinity ratio. The note with it: present data. Format: binding. The protocol: (§3) All receptors were heterologously expressed CHO cells and IC50 values were determined by a non-linear, least squares regression analysis using MathIQ (ID Business Solution Ltd, UK). K1 was calculated (Y. Cheng & Prusoff 1973) from the observed IC50 of the tested compound, the concentration of radioligand employed in the assay, and the historical values for the Kd of the ligand (obtained experimentally at MDS Pharma Services).

Data set [5] relates to rats. Kind of data set: Amphetamine-induced locomotion (AIL). The settings on record: Rattus norvegicus, ip, 1 h, read-out: AIL (ED50).
Procedure: Animals were habituated to the locomotor arena for 1 hr on 4 consecutive days prior to testing. Locomotor activity was assessed on day 1 of habituation and treatment groups were assigned in a counter balanced fashion depending on locomotor activity on this day.
After d-AMPH/SAL injection, distance travelled was assessed for 1 hr. Distance travelled was recorded with Noldus Ethovision XT (Noldus, Leesburg, Va.) and analyzed off-line.
Amphetamine induced locomotion (AIL): Animals were habituated to locomotor arenas for 1 hr on 4 consecutive days prior to testing. Locomotor activity was assessed on day 1 of habituation and treatment groups were assigned in a counter-balanced manner determined by distance traveled on day 1. […] Distance traveled was recorded with Noldus Ethovision XT (Noldus, Leesburg, Va.) and analyzed off-line.
Data set [6] deals with T1, D2L (Homo sapiens, UniProt P14416).
T1 construct: host or cells: CHO cells
T1 sequence (P14416 whole entry): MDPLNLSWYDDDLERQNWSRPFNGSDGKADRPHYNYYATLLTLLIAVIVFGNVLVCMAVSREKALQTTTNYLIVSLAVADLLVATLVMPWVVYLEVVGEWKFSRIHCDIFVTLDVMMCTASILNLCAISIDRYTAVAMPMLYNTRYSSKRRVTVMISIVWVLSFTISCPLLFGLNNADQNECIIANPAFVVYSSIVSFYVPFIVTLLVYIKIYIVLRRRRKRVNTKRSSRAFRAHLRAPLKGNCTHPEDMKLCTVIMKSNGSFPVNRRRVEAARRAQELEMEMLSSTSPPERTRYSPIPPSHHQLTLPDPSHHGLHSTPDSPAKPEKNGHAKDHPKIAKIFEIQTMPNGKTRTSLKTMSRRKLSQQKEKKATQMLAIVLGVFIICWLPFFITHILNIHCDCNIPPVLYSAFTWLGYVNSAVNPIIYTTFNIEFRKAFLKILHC
Kind of data set: Receptor binding, dopamine D2L. The settings on record: present data; comparison ligand 0.16 nM Spiperone; read-out: D2L (Ki). On the procedure: (§4) All receptors tested were heterologously expressed CHO cells and IC50 values were determined by a non-linear, least squares regression analysis using MathIQ (ID Business Solution Ltd, UK). Ki was calculated using the equation of Cheng and Prusoff (1973, Biochem. Pharmacol 22:23099-3108) derived from the observed IC50 of the tested compound, the concentration of radioligand employed in the assay, and the historical values for the Kd of the ligand (obtained experimentally at MDS Pharma Services).
as §3

The test system of data set [7] is rats. Kind of data set: Latent inhibition. Type of data set: in vivo, rat. The protocol: Sensitization: Animals were removed from the colony and taken to a holding room where they received either IP d-AMPH or saline every Monday, Wednesday, and Friday. Doses started at 1 mg/kg and increased 1 mg/kg each week over 5 weeks to 5 mg/kg. 25 days after the induction phase, behavioral sensitization was assessed over 3 days in locomotor chambers (plexiglass box, 40 cm×40 cm×40 cm) where speed and distance traveled were recorded using Noldus Ethovision XT (Noldus, Leesburg, Va.). The first day consisted of a 2 hr acclimation session, and prior to counter balanced injections of either 0.5 mg/kg d-AMPH or saline on days 2 and 3 animals were acclimated for 1 hr. Experiments were run in two separate cohorts of 30 animals to minimize the time between testing sensitization and LI.
Latent Inhibition: LI tests were performed in rats treated with 1.0 mg/kg acute d-AMPH, sensitized rats, and drug-naive rats. LI testing began 5 days post-challenge of the escalating dose regime. Animals in both conditions (chronic saline or sensitized) were randomly assigned to either non-pre-exposed (NPE) or pre-exposed (PE) groups. Testing took place over 3 consecutive days. […] Animals in the PE group received 50 presentations of the CS (10 sec duration) per day at a variable interval for the first two days. Animals in the NPE group were placed in the chamber for an equal time as the PE animals. Conditioning (COND) consisted of 100 CS-US pairings. Latency to cross into the other compartment and the number of total beam breaks were recorded. Drug-naïve animals receiving acute 1.0 mg/kg AMPH were injected IP 45 min before the COND trial.
The effects of the two individual enantiomers of govadine on latent inhibition (LI) were also tested as described in Example 12.

Data set [8] has as its target T2, D1 (Homo sapiens, UniProt P21728). Kind of data set: Receptor binding, dopamine D1. Also on record: host or cells: CHO cells. The settings on record: present data; comparison ligand 0.14 nM SCH-23390; read-out: D1 (Ki). On the procedure: as §4, §3
Data set [9] relates to rats. The data set is described as follows: Microdialysis of prefrontal cortex and nucleus accumbens.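 Further: dialysate collected every 10 min from freely moving rats, analysed by HPLC with electrochemical detection, after four stable baseline samples (under 10% variation) preceding drug dosing.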
Procedure: Rats received subcutaneous injections of an analgesic (ketoprofen 0.05 mL or buprenorphine, 0.1 mL) and sterile saline (0.9% NaCl, ˜3 mL). Once shaved and cleaned, the heads were secured in the stereotaxic frame in flat skull position for bilateral implantation of stainless steel microdialysis guide cannulae (19 gauge×15 mm) in the nucleus accumbens (NAc) (from bregma +1.7 mm anterior and ±1.1 mm medial; from dura −1.0 mm ventral) or medial prefrontal cortex (mPFC) (+3.0 mm anterior, ±0.6 mm medial; −1.0 mm ventral). […] Rats were allowed to rest with heat support until they regained consciousness, and then given a one-week recovery period.
Microdialysis probes were assembled 1-2 days prior to microdialysis experiments. Probes were concentric in design, constructed from Filtral 12 AN69HF semi-permeable hollow fibres (2 mm length, 340 μm OD×4 mm, 65 kDalton molecular weight cut-off; Hospal, Neurnberg, Germany) and silica inlet-outlet lines (75/150 um ID/OD).
The day prior to microdialysis experiments, probes were connected to an Instech dual-channel liquid swivel (Plymouth Meeting, Pa.) and flushed with artificial cerebrospinal fluid (aCSF). […] Following DA recovery tests, probes were implanted via the guide cannulae (dialysis membrane spanned −4.8 to −6.8 mm ventrally for NAc; −1.6 to −3.6 mm for mPFC). Rats remained in the testing chamber overnight (14-16 hr) with aCSF perfusing continuously through the probes at 1 μL/min In the morning, microdialysis samples were collected at 10 min intervals and assayed for DA, DOPAC, homovanillic acid (HVA) and 5-HIAA content. Once baseline levels were determined to be stable for four consecutive samples (less than 10% fluctuation), the drug treatment phase of each experiment was initiated.
Microdialysis samples were analyzed immediately after collection using high pressure liquid chromatography (HPLC) with electrochemical detection. […] The mobile phase [70 mM sodium acetate buffer, 40 mg/L EDTA and 50 mg/L of sodium dodecyl sulfate (adjustable), pH 4.0, 10% methanol] flowed through the system at 0.17 mL/min EZChrome Elite software (Scientific Software, Pleasanton, Calif.) was used to acquire and analyze chromatographic data.
After the experiments, rats were deeply anesthetized, brains were removed and stored in 20% w/v sucrose and 4% v/v paraformaldehyde. Brains were sliced into 50 um coronal sections, stained with cresyl violet and examined for probe placement.
Microdialysis probes (2 mm active membrane) were implanted in the NAc and mPFC ˜16 hrs prior to start of the experiment and continuously perfused aCSF.
Data set [10] relates to rats. The data set is described as follows: Temporal order recognition (radial arm maze). The settings on record: 1.0 mg/kg govadine isomers, 5.0 mg/kg clozapine.
Procedure: The task exploits a rat's natural preference for novel locations. Each animal received 3 separate trials where access to two arms of an eight arm radial arm maze was granted. During the first trial, two arms were selected at random for exploration, and animals were allowed to explore these arms for 2 min After this time, they were taken off the maze and returned to their home cage. 1 hour later they were placed back on the maze and two new arms were randomly selected for 2 min of exploration.
Time spent in each arm (recent and old) was recorded as well as total distance traveled and the total number of arm entries in Noldus EthoVision 3.1 (Leesburg, Va.).
Data set [11] deals with T1, D2L. The note with it: Xu, S. X. et al., 1989; comparison ligand 0.16 nM Spiperone; cited from earlier work.
Data set [12] relates to rats. The settings on record: Natesan et al., 2008; cited from earlier work.
The subject of data set [13] is rats. The note with it: Natesan et al., 2008; cited from earlier work. The source holds these as a separate data set.
Data set [14] has as its system rats. The settings on record: Natesan et al., 2008; listed as 1-SPD; cited from earlier work.
Data set [15] deals with D1/D2. The note with it: cited from earlier work.
Data set [16] addresses T2, D1. The note with it: read-out: D1 (Ki); Xu, S. X. et al., 1989; comparison ligand 0.14 nM SCH-23390; cited from earlier work.
The mark [17] stands for this setting: microdialysis, nucleus accumbens.
Where [18] appears, read: microdialysis, prefrontal cortex.

T2 sequence (P21728 whole entry): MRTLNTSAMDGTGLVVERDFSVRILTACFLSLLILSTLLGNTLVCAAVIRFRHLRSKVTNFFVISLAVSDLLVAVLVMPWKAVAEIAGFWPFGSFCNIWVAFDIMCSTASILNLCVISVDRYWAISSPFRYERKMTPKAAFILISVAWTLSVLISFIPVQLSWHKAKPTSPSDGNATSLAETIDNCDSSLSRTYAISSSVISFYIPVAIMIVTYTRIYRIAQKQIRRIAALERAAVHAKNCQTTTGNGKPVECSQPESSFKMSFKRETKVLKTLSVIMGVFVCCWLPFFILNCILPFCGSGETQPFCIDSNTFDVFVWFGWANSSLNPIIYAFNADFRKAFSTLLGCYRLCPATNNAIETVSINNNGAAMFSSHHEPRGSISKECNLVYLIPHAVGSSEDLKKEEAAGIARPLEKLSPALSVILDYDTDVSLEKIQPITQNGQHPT

As to `COc1cc2c(cc1O)CN1CCc3cc(OC)c(O)cc3C1C2` (racemic) [dl-govadine], in [1] (1.0 mg/kg SC), the catalepsy observed result is “mild motor suppression”. The catalepsy observed result in [1] (6.0 mg/kg SC) was “Strong and extended catalepsy”. In addition, the “catalepsy (immobilized contact time)” value in [1] (SC, across doses tested) is on record as “dose-dependent increase”. In data set [2], this compound gave a median effective dose (ED50) at 45 min of 4.7 mg/kg. For the same compound, in data set [3] (Rattus norvegicus, sc, 20 min, read-out: CAR (ED50), present data, SC, 20 min post-injection), the ED50 was found to be 0.723 mg/kg. In data set [3] (SC, 100 CS-US pairings), the “escapes in CAR” value was “increase in escapes” and the “suppression of conditioned avoidance responding (avoidances)” value was “dose-dependently suppressed avoidances”. In addition, the “CAR (ED50)” value in [3] (present data, SC, 20 min post-injection) is given as 0.720# mg/kg. Moreover, in data set [3] (repeated treatment, FIG. 14), the “effect of repeated treatment in CAR” value is on record as “Neither of these effects was observed”. In addition, the D1/D2 in data set [4] was 0.023#. Moreover, the 50% effective dose (ED50) at […] in data set [5] was 1.7 mg/kg. Further, the inhibitory constant (Ki) in data set [6] worked out at 283 nM. In data set [7] (1.0 mg/kg SC before each pre-exposure session), the “latent inhibition in non-sensitized animals” value is reported as “no subsequent effect on LI”. For the same compound, in data set [7] (1.0 mg/kg SC before each pre-exposure, 5-week escalating d-AMPH), the “latent inhibition in d-AMPH sensitized animals” value is listed as “restored LI to levels observed in controls”. Besides, in data set [7] (treatment before each pre-exposure, 1.0 mg/kg d-AMPH before conditioning), the “latent inhibition in acute d-AMPH-treated animals” value is listed as “restored LI”. The Ki in data set [8] amounted to 6.7 nM. The “DA efflux in NAc and mPFC compared to control” value in data set [9] (1 mg/kg, Example 15) is reported as “enhanced DA efflux”. In data set [9] (setting [17]), the “5-HIAA in NAc” value is recorded as “No increase”, the “DOPAC in NAc” value is “Increases”, the “HVA in NAc” value is listed as “Increases” and the “dopamine level in NAc” value is on record as “increased”. In [9] (setting [18]), the “5-HIAA in PFC” value was “No increase”, the “DOPAC in PFC” value is reported as “Increases”, the “HVA in PFC” value is given as “Increases” and the “dopamine level in PFC” value is recorded as “increased”.

Consider `CN1CCN(C2=Nc3cc(Cl)ccc3Nc3ccccc32)CC1` [Clozapine, reference compound], for which, in data set [10] (45 min. delay), the “Arm Entries” value is on record as 7.0 ± 1.9 and the “Distance Travelled” value is on record as 1286 ± 177. Moreover, in data set [10] (4 hr. delay), the “Arm Entries” value is 6.0 ± 1.6 and the “Distance Travelled” value came out at 1098 ± 74.

As to `COc1cc2c(cc1O)[C@@H]1Cc3ccc(O)c(OC)c3CN1CC2` [l-Stepholidine, l-stepholidine], the Ki in data set [11] is 85 nM; in [16] it was 13 nM. For the same compound, in data set [12], the “AIL (ED50)” value is given as 2.36* mg/kg. For the same compound, the “Catalepsy (ED50)” value in [13] is on record as 3.6 mg/kg. In addition, the “CAR (ED50)” value in data set [14] is on record as 0.27 mg/kg. The D1/D2 in data set [15] (Natesan et al., 2008) is listed as 0.850*; in [15] (Xu, S. X. et al., 1989), 0.150**.
